Here are results for six compounds from US20240116985A1, “STAPLED PEPTIDES AND METHODS THEREOF” (priority 2020, published 2024).

Assay [1] has as its target T1, full-length beta-Catenin (Uniprot ID P35222) (Homo sapiens, UniProt P35222).
T1 construct: 10 nM full-length beta-Catenin (Uniprot ID P35222)
T1 sequence (P35222 1-781): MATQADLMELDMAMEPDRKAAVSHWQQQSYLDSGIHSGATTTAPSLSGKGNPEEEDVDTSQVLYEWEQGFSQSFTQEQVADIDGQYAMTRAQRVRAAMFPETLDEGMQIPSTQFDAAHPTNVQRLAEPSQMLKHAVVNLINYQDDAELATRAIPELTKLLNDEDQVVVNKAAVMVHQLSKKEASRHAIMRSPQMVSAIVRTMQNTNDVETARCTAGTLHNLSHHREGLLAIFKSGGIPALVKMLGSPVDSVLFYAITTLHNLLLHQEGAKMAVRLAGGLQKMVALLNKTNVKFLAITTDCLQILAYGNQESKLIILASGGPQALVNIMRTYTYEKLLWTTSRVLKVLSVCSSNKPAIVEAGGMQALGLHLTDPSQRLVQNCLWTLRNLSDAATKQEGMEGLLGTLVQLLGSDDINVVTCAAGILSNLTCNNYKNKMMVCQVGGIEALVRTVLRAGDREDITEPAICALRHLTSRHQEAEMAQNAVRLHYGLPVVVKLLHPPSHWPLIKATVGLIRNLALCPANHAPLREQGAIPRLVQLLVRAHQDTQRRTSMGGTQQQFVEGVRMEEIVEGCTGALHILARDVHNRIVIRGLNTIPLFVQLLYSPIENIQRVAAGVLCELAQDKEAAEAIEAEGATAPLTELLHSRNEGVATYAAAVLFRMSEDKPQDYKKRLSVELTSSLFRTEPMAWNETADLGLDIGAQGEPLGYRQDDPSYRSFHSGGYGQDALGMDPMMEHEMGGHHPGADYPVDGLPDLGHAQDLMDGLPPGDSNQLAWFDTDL
The assay is described as follows: Fluorescence polarization IC50 (beta-catenin / 5FAM-TCF4 10-53 competition). The format is binding. The conditions noted are these: fluorescence polarization; read-out: beta-Catenin FP IC50.

Assay [2] addresses T2, beta-catenin/TCF4 engagement (Homo sapiens, UniProt P35222).
T2 construct: expressed in transfected cells; host or cells: HEK293
T2 sequence (P35222 1-781): T1 sequence (P35222 1-781)
The assay is described as follows: Nano-BRET target engagement assay (B-cat-Halo & TCF4-Luc in HEK293 cells). The assay is classed as cell-based. The note with it: absolute IC50; read-out: NanoBRET Abs IC50.

pIC50: −log10 of the molar value.

Turning to `CC(=O)N1CCC[C@]12CC=CCCCC1(CCCC=CCCCCCC[C@@](C)(C(=O)N[C@@H](Cc3ccccc3)C(=O)N[C@@H](Cc3csc4ccccc34)C(=O)N[C@@H](CCC(N)=O)C(N)=O)NC(=O)[C@H](CCO)NC(=O)[C@H](Cc3ccccc3)NC(=O)[C@H](C)NC(=O)[C@H](C)NC(=O)[C@H](CCC(=O)O)NC(=O)[C@H](CC(=O)O)NC1=O)NC(=O)[C@H](CCC(C)C)NC(=O)[C@H](CC(=O)O)NC2=O` (stereo partly drawn) [I-1538, Ac-PL3-Asp-Hleu-B5-Asp-Glu-Ala-Ala-Phe-Hse-S8-Phe-BztA-Gln-NH2], the negative-log IC50 (pIC50) is 7.68 in assay [1] and 4.93 in assay [2].

`CC(=O)N1CCC[C@]12CC=CCCCC1(CCCC=CCCCCCC[C@@](C)(C(=O)N[C@@H](Cc3ccccc3)C(=O)N[C@@H](Cc3csc4ccccc34)C(=O)N[C@@H](CCC(N)=O)C(N)=O)NC(=O)[C@H](CCC(N)=O)NC(=O)[C@H](Cc3ccccc3)NC(=O)[C@H](C)NC(=O)[C@H](C)NC(=O)[C@H](CCC(=O)O)NC(=O)[C@H](CC(=O)O)NC1=O)NC(=O)[C@H](CCC(N)=O)NC(=O)[C@H](CC(=O)O)NC2=O` (stereo partly drawn) [I-1539, Ac-PL3-Asp-Gln-B5-Asp-Glu-Ala-Ala-Phe-Gln-S8-Phe-BztA-Gln-NH2]: the pIC50 was 7.44 in assay [1] and below 4.70 in assay [2].

In the case of `CC(=O)N1CCC[C@]12CC=CCCCC1(CCCC=CCCCCCC[C@@](C)(C(=O)N[C@@H](Cc3ccccc3)C(=O)N[C@@H](Cc3csc4ccccc34)C(=O)N[C@@H](CCC(N)=O)C(N)=O)NC(=O)[C@H](CCC(N)=O)NC(=O)[C@H](Cc3ccccc3)NC(=O)[C@H](C)NC(=O)[C@H](C)NC(=O)[C@H](CCC(=O)O)NC(=O)[C@H](CC(=O)O)NC1=O)NC(=O)[C@H](CCO)NC(=O)[C@H](CC(=O)O)NC2=O` (stereo partly drawn) [I-1544, Ac-PL3-Asp-Hse-B5-Asp-Glu-Ala-Ala-Phe-Gln-S8-Phe-BztA-Gln-NH2], the results for the pIC50 in assay [1] and in assay [2] were 7.21 and below 4.70, respectively.

Take `CC(=O)N1CCC[C@]12CC=CCCCC1(CCCC=CCCCCCC[C@@](C)(C(=O)N[C@@H](Cc3ccccc3)C(=O)N[C@@H](Cc3csc4ccccc34)C(=O)N[C@@H](CCC(N)=O)C(N)=O)NC(=O)[C@H](CCC(N)=O)NC(=O)[C@H](Cc3ccccc3)NC(=O)[C@H](C)NC(=O)[C@H](C)NC(=O)[C@H](CCC(=O)O)NC(=O)[C@H](CC(=O)O)NC1=O)NC(=O)[C@H](CCO)NC(=O)[C@H](CC(=O)O)NC2=O` (stereo partly drawn) [I-1545, Ac-PL3-Asp-Hse-B5-Asp-Glu-Ala-Ala-Phe-Gln-S8-Phe-BztA-Gln-NH2]: the figures for the pIC50 in assay [1] and in assay [2] were 7.59 and below 4.70, respectively.

Regarding `CC(=O)N1CCC[C@]12CC=CCCCC1(CCCC=CCCCCCC[C@@](C)(C(=O)N[C@@H](Cc3ccccc3)C(=O)N[C@@H](Cc3csc4ccccc34)C(=O)N[C@@H](CCC(N)=O)C(N)=O)NC(=O)[C@H](CC(C)C)NC(=O)[C@H](Cc3ccccc3)NC(=O)[C@H](C)NC(=O)[C@H](C)NC(=O)[C@H](CCC(=O)O)NC(=O)[C@H](CC(=O)O)NC1=O)NC(=O)[C@H](CCO)NC(=O)[C@H](CC(=O)O)NC2=O` (stereo partly drawn) [I-1546, Ac-PL3-Asp-Hse-B5-Asp-Glu-Ala-Ala-Phe-Leu-S8-Phe-BztA-Gln-NH2], the pIC50 in assay [1] was 7.15; in assay [2], 4.42.

As to `CC(=O)N1CCC[C@]12CC=CCCCC1(CCCC=CCCCCCC[C@@](C)(C(=O)N[C@@H](Cc3ccccc3)C(=O)N[C@@H](Cc3csc4ccccc34)C(=O)N[C@@H](CCC(N)=O)C(N)=O)NC(=O)[C@H](CCO)NC(=O)[C@H](Cc3ccccc3)NC(=O)[C@H](C)NC(=O)[C@H](C)NC(=O)[C@H](CCC(=O)O)NC(=O)[C@H](CC(=O)O)NC1=O)NC(=O)[C@H](CCO)NC(=O)[C@H](CC(=O)O)NC2=O` (stereo partly drawn) [I-1547, Ac-PL3-Asp-Hse-B5-Asp-Glu-Ala-Ala-Phe-Hse-S8-Phe-BztA-Gln-NH2], the values for the negative logarithm of the IC50 (pIC50) in assay [1] and in assay [2] were 7.17 and below 4.70, respectively.
